Results from ChEMBL document CHEMBL3132843, “Discovery of novel inhibitors for human farnesyltransferase (hFTase) via structure-based virtual screening” (Medchemcomm, 2013).

Key:
MCF7 = experiment: Cytotoxicity against human MCF7 cells after 48 hrs by MTT assay; type: functional, cell-based; settings: MCF7, 48 h
[1] = target: Protein farnesyltransferase (Homo sapiens, UniProt P49354+P49356); experiment: Inhibition of human FTase using farnesyl pyrophosphate as substrate by fluorescent assay; type: protein-complex assay

Row | SMILES | IC50 [1] [µM] | IC50 (MCF7) [µM]
1 | Cc1c(Cc2ccccc2)sc(CC(=O)CCC(=O)O)c1C(N)=O | 3.52 | > 100
2 | Cc1cncc(NC(c2cccc(OCc3ccccc3)c2)c2ccc3cccnc3c2O)c1 (stereo unspecified) | 0.0489 | 14.3
3 | Cc1ccc(Oc2ncccc2NC(=O)CCCC(=O)O)c2c1CCC2 | 5.4 | > 100
4 | N#Cc1c(SCc2ccc(C(=O)O)cc2)nc2c(c1-c1ccccc1)CCC2 | 5.6 | > 100
5 | Oc1ccc(NCc2cc(Cl)ccc2OCc2ccccc2F)cc1 | 4.21 | 12.2
6 | COc1cc(CNc2ccc(O)cc2)cc(Cl)c1OCc1ccc(Cl)cc1 | 2.57 | 20.5
7 | O=C(c1ccccc1)c1ccc(/N=C/c2cc([N+](=O)[O-])ccc2O)cc1 | 11 | > 100
8 | O=C(O)c1ccc(/N=[N+](/[O-])c2ccccc2Sc2ccccc2C(=O)O)cc1Sc1ccccc1O | 3.22 | > 100
9 | CCN(CC)c1ccc(/C=N/Nc2nc(NCc3ccco3)nc(Nc3ccc(OC)cc3)n2)c(OCc2ccc(Cl)cc2Cl)c1 | 0.0515 | > 100
10 | CCOC(=O)c1c(C)oc2c1cc(NS(=O)(=O)c1ccc(C(=O)O)cc1)c1ccccc12 | 3.89 | 46.7
11 | O=C(O)C1CCCCC1C(=O)Nc1ccc(Oc2ccccc2)cc1 (stereo unspecified) | 3.56 | > 100
12 | Cc1ccc(OC(=O)c2ccc3c(c2)C(=O)N(c2cccc4ccccc24)C3=O)cc1 | 0.44 | > 100
13 | O=C(N/N=C\c1cn(Cc2ccc([N+](=O)[O-])cc2)c2ccccc12)c1cc2ccccc2o1 | 0.14 | > 100
14 | Cn1cncc1[C@@](N)(c1ccc(Cl)cc1)c1ccc2c(c1)c(-c1cccc(Cl)c1)cc(=O)n2C [TIPIFARNIB] | 0.003 | 3.08

Now from value to molecule, other results behind:

Row | IC50 [1] [µM] | SMILES | IC50 (MCF7) [µM]
15 | 0.0119 | Oc1cccc2ccc(/C=C/c3ccccc3OCc3ccccc3Cl)nc12 | > 100
16 | 0.52 | O=C(c1ccc(Cl)cc1)N1N=C(c2c(-c3ccccc3)c3cc(Br)ccc3[nH]c2=O)CC1c1ccco1 (stereo unspecified) | 32.2
17 | 13.3 | Cc1ccc(Oc2ncccc2NC(=O)CC(CC(=O)O)c2ccccc2)c2c1CCC2 (stereo unspecified) | > 100
18 | 6.9 | Cc1cccc(Oc2ccc(NC(=O)c3ccccc3C(=O)O)cc2)c1C | > 100
19 | 5.14 | COc1cc(/C=C2\S/C(=N\c3ccccc3)N(Cc3ccco3)C2=O)ccc1OC(C)C(=O)O (stereo unspecified) | > 100
20 | 8.8 | COCCN1C(=O)C(O)=C(C(=O)c2ccc(C)cc2)C1c1cccc(Oc2ccccc2)c1 (stereo unspecified) | > 100
21 | 2.58 | CC1=NN(c2ccccc2)C(=O)/C1=C/c1ccccc1OCc1ccc(C(=O)O)cc1 | 38.9
22 | 0.37 | COc1ccc(-c2cc(C(=O)OCC(=O)c3cccc4ccccc34)c3ccccc3n2)cc1 | > 100
23 | 1.46 | COc1cccc(C2C(C(=O)/C=C/c3ccccc3)=C(O)C(=O)N2c2ccccc2)c1 (stereo unspecified) | > 100
